Data on one substance can be found in patent US10111449B2, “Production procedure for a functional feed based in ellagic acid, cimenol and alliin from vegetable extracts to be used as pronutrient in animal feed” (BIOVET, S.A., priority 2015, dated 2018).

Test [1] concerns bacteria, yeast and fungal; gastrointestinal pathogens. The test is described as follows: In vitro tests and field trials of cimenol ring against gastrointestinal pathogens. The source says: In vitro tests and field trials indicate that cimenol ring is effective against bacteria, yeast and fungal; gastrointestinal pathogens whose mechanisms of action are: […]
Test [2] relates to yeasts and fungi. The test is described as follows: Kill of yeasts and fungi on contact with cimenol ring. The settings on record: appropriate concentrations, 10 minutes of contact. Format: cell-based. On the procedure: On yeasts and fungi, appropriate concentrations of cimenol ring achieves to kill 100% of microorganisms in just 10 minutes of contact. Cell lysis and release of cellular contents into the medium are observed. At electronic microscope, yeasts and fungi are malformed and have fractures in cell walls, especially those found in the proliferation phase.

Take cimenol [cimenol ring]: the “effectiveness against bacteria, yeast and fungal gastrointestinal pathogens” value in test [1] was “effective”. In test [2], this substance displayed a kill of microorganisms of 100%.
